Measured values from US20170226139A1, “CRYSTALLINE SALTS OF (Z)-O-OCTADEC-9-EN-1-YL O,O-DIHYDROGEN PHOSPHOROTHIOATE” (priority 2013, published 2017).
“Also recorded” adds a separate entry of the source. Where two headings read alike, the source gives them in different places.

What was measured:
[1] = system: lysophosphatidic acid receptor (LPAR); assay: Calcium-mobilization assay, overall statements for all species and LPAR subtypes tested; assay type: cell-based
Excerpt: The compound was medicinally designed as an LPA analog with the goal of decreasing the otherwise rapid metabolism of LPA itself. […] These receptors are ubiquitous by tissue and in those eukaryotes investigated. […] Thus, the mechanism of drug action for GI-ARS protection is activation of the transmembrane G protein-coupled lysophosphatidic acid receptor (LPAR) and, more specifically, the LPAR2 GPCR subtype. The primary pharmacodynamics is that LPAR2 activation leads to a cascade of intracellular events that switch cells from an apoptotic to a repair/regenerative pathway.
We investigated structure-activity relationships across species, LPAR subtypes and between Rx100 and two known process impurities encountered in manufacture: Rx103 (‘E’ isomer) and Rx200 (oleyl phosphate and impurity, which can be an Rx100 degradant along with oleyl alcohol). Rx100, Rx103, Rx200 and native LPA were investigated at different human LPAR subtypes. In addition, the activity of these compounds was evaluated at LPA2 receptors from the rhesus, rat and mouse species. Human LPA1/2/3 subtypes were transfected into mouse embryonic fibroblasts (MEF) or rat hepatoma cells (RH7777)—both of which are normally non-responsive or null to LPA. Human LPA4 was transfected into Chinese hamster ovary (CHO) cells and LPA5 into the B103 neuroblastoma cell line. […] The B103 rat neuroblastoma cell line is endogenously nonresponsive to LPA but expresses heterologous LPA5 receptors well. […] LPAR activation elicits a G-protein-mediated transient rise in intracellular calcium level that is proportional to the concentration of LPA applied. The intracellular calcium level was quantified by the calcium-selective fluorescent indicator FURA-2 (e.g., increased intracellular calcium surge=increased fluorescence).
Oleyl alcohol is, of course, a common component of many non-toxic ingested or dermally applied substances.

[2] = Short term (24 hour) slurry tests, XRPD of wet and dried solids; assay type: physicochemical; settings: minimum 24 hours, 15 solvent systems, 25 and 50° C., wet and dried solids
Method: Second, short term slurry tests were performed. Rx100.L-Lysine salt was slurried for a minimum of 24 hours in 15 different solvent systems at two different temperatures (25 and 50° C.) in an attempt to provide information for crystallization experiments and design of polymorph screening experiments. A 48 position Chemglass reaction block was used for heating and stirring the slurries which were in 2 mL HPLC vials. After the due time, vials were centrifuged and the wet solids were used for X-ray diffraction. […]

[3] = Subcutaneous and intravenous pharmacokinetics in healthy and irradiated Rhesus Macaques; assay type: in vivo
Method: We performed a cross-over comparison of subcutaneous and intravenous pharmacokinetics of Rx100.L-Lysine in six healthy Rhesus Macaques and subcutaneous pharmacokinetic and Pharmacodynamics of Rx100.L-Lysine after a single irradiation in six Rhesus Macaques.
Rhesus macaques (male, 3-5 kg) were administered vehicle control article (10 mM Histidine in sterile water for Injection, USP) or Rx100.Lysine salt as a single injection via subcutaneous injection or as an intravenous bolus as indicated in Table 32.
Blood was collected at baseline (7-10 days prior to dose administration), pre-dose (within 30 minutes), 0.5, 1, 2, 4, 6, 8, 24, 48, 72, 96, and 120 hours after dosing for phases 1 and 2. The phase 3 (post-irradiation phase) blood was collected at baseline (7-10 days prior to dose administration), pre-dose (within 30 minutes), 0.5, 1, 2, 4, 6, 8, 24, 48, 72, and 96 hours after dosing. The dose in phase 3 was administered approximately 24 hours after exposure to 11.5 Gy Partial Body Irradiation. Samples, approximately 1.0 mL, were collected and maintained on wet ice in vials containing Di-Potassium EDTA until centrifugation. Samples were stored in a freezer set to maintain −70° C. to −90° C. until shipped on dry ice for analysis.
Analysis was performed using qualified and validated Phoenix® WinNonlin® Software and RxBio™ SOP PRE-0030™, Phoenix® WinNonlin® Software for Statistical Analysis. The final data provided was imported into Phoenix® WinNonlin®. All data presented were generated using the validated Phoenix® WinNonlin® Software. Concentrations reported as BLOQ were treated as missing values for the purpose of this analysis. A non-compartmental pharmacokinetic analysis was performed for each subject separately for IV, SC, and SC+IR. The automatic terminal slope selector function was used along with nominal dose (1 mg/kg) with a dosing interval set at 120 hours since this was a single dose study. The terminal slope was selected from the last 3 quantifiable plasma concentrations for each subject (48-96 hours for the Phase 3 Irradiated subjects and 72-120 for all healthy subjects). Selected pharmacokinetic estimations are presented in Table 33, time of maximum concentration (Tmax (h)), maximum concentration observed (Cmax (ng/mL)), exposure or area under the concentration vs time curve (AUC (h*ng/mL)), volume of distribution (Vz_F ([…])), clearance (CL_F (mL/h/kg), and half-life (T½ or HL_Lambda_z (h)).

[4] = SC 1 mg/kg about 24 h after 11.5 Gy, Average of 6 animals
[5] = SC 1 mg/kg, healthy, Average of 6 animals
[6] = male, rhesus monkey, plasma, iv, 1 mg/kg, IV 1 mg/kg, healthy, Average of 6 animals
[7] = male, rhesus monkey, plasma, iv, 1 mg/kg, IV 1 mg/kg, healthy, individual animals (ID in c1)
[8] = male, rhesus monkey, plasma, sc, 1 mg/kg, SC 1 mg/kg about 24 h after 11.5 Gy, Average of 6 animals
[9] = male, rhesus monkey, plasma, sc, 1 mg/kg, SC 1 mg/kg, healthy, Average of 6 animals

## CCCCCCCC/C=C\CCCCCCCCOP(O)(O)=S [Rx100, (Z)—O-octadec-9-en-1-yl O,O-dihydrogen phosphorothioate]
[1]
  LPAR activation: pan lysophosphatidic acid receptor (LPAR) agonist; also recorded: substantially more in vitro activity

## CCCCCCCC/C=C\CCCCCCCCOP(O)(O)=S [Rx100.L-Lysine, (Z)—O-octadec-9-en-1-yl O,O-dihydrogen phosphorothioate]
[2]; listed as Rx100.L-Lysine salt
  Form by XRPD after short term slurry: no change in form
[2]; listed as Rx100 crystalline sesqui-L-lysine salt
  Form by XRPD after short term slurry: do not change in form
[3]; IV 1 mg/kg, healthy, Average of 6 animals
  λz: 0.049 ± 0.020 h⁻¹
[3]; [4]
  CL: 20 ± 7 mL/h/kg
  Vd: 251 ± 91 mL/kg
  λz: 0.079 ± 0.006 h⁻¹
[3]; [5]
  Vd: 260 ± 83 mL/kg
  λz: 0.066 ± 0.004 h⁻¹
[3]; SC post IR
  F: 0.89±0.2
[3]; SC post IR, 1 mg/kg
  clearance (CL): 20 ± 7 mL/h/kg
  volume of distribution (Vd): 251 ± 91 mL/kg
[3]; SC, healthy, versus IV
  fraction absorbed after subcutaneous administration (F): 1.0±0.18
[3]; SC, healthy, single dose 1 mg/kg
  volume of distribution (Vd): 260 ± 83 mL/kg
[3]; [6]
  AUC: 63200 ± 15100 ng·h/mL
  Cmax: 18600 ± 1760 ng/mL
[3]; male, rhesus monkey, plasma, iv, 1 mg/kg, IV 1 mg/kg, healthy, Average of 6 animals, read-out: AUCINF
  AUC(0-inf): 63200 ± 15100 ng·h/mL
[3]; male, rhesus monkey, plasma, iv, 1 mg/kg, IV 1 mg/kg, healthy, Average of 6 animals, read-out: CL (converted)
  clearance: 0.283 mL/min/kg
[3]; male, rhesus monkey, plasma, iv, 1 mg/kg, IV 1 mg/kg, healthy, Average of 6 animals, read-out: T1/2 (converted)
  half-life: 984 ± 437 min
[3]; male, rhesus monkey, plasma, iv, 1 mg/kg, IV 1 mg/kg, healthy, Average of 6 animals, read-out: Vd
  Vd: 428 ± 290 mL/kg
[3]; [7]
  AUC: 73500 ng·h/mL
  Cmax: 15900 ng/mL
[3]; male, rhesus monkey, plasma, iv, 1 mg/kg, IV 1 mg/kg, healthy, individual animals (ID in c1), read-out: AUCINF
  AUC(0-inf): 73500 ng·h/mL
[3]; male, rhesus monkey, plasma, iv, 1 mg/kg, IV 1 mg/kg, healthy, individual animals (ID in c1), read-out: CL (converted)
  clearance: 0.233 mL/min/kg
[3]; male, rhesus monkey, plasma, iv, 1 mg/kg, IV, healthy, 1 mg/kg, read-out: clearance (CL) (converted)
  clearance: 0.283 mL/min/kg
[3]; male, rhesus monkey, plasma, iv, 1 mg/kg, IV, healthy, 1 mg/kg, read-out: exposure (AUCINF)
  AUC(0-inf): 63200 ± 15100 ng·h/mL
[3]; male, rhesus monkey, plasma, iv, 1 mg/kg, IV, healthy, 1 mg/kg, read-out: half-life (converted)
  half-life: 984 ± 437 min
[3]; male, rhesus monkey, plasma, iv, 1 mg/kg, IV, healthy, 1 mg/kg, read-out: volume of distribution (Vd)
  Vd: 428 ± 290 mL/kg
[3]; male, rhesus monkey, plasma, iv, 1 mg/kg, IV, healthy, read-out: half-life, range of individual subjects
  half-life: 562 to 1730 min
[3]; male, rhesus monkey, plasma, iv, 1 mg/kg, intravenous bolus, healthy
  Cmax: 18600 ± 1760 ng/mL
[3]; [8]
  AUC: 57300 ± 24200 ng·h/mL
  Cmax: 3110 ± 887 ng/mL
  Tmax: 4 ± 2 h
[3]; male, rhesus monkey, plasma, sc, 1 mg/kg, SC 1 mg/kg about 24 h after 11.5 Gy, Average of 6 animals, read-out: AUCINF
  AUC(0-inf): 57300 ± 24200 ng·h/mL
[3]; male, rhesus monkey, plasma, sc, 1 mg/kg, SC 1 mg/kg about 24 h after 11.5 Gy, Average of 6 animals, read-out: T1/2 (converted)
  half-life: 526 ± 37.3 min
[3]; male, rhesus monkey, plasma, sc, 1 mg/kg, SC 1 mg/kg about 24 h after 11.5 Gy, individual animals (ID in c1), read-out: T1/2 (converted)
  half-life: 553 min
[3]; [9]
  AUC: 63700 ± 21400 ng·h/mL
  Cmax: 3130 ± 637 ng/mL
  Tmax: 4 ± 2 h
[3]; male, rhesus monkey, plasma, sc, 1 mg/kg, SC 1 mg/kg, healthy, Average of 6 animals, read-out: AUCINF
  AUC(0-inf): 63700 ± 21400 ng·h/mL
[3]; male, rhesus monkey, plasma, sc, 1 mg/kg, SC 1 mg/kg, healthy, Average of 6 animals, read-out: T1/2 (converted)
  half-life: 630 ± 36 min
[3]; male, rhesus monkey, plasma, sc, 1 mg/kg, SC 1 mg/kg, healthy, individual animals (ID in c1)
  Cmax: 2390 ng/mL
[3]; male, rhesus monkey, plasma, sc, 1 mg/kg, SC 1 mg/kg, healthy, individual animals (ID in c1), read-out: T1/2 (converted)
  half-life: 636 min
[3]; male, rhesus monkey, plasma, sc, 1 mg/kg, SC post IR
  Cmax: 3110 ± 887 ng/mL
[3]; male, rhesus monkey, plasma, sc, 1 mg/kg, SC post IR (~24 hours after 11.5 Gy Partial Body Irradiation), 1 mg/kg
  Tmax: 4 ± 2 h
[3]; male, rhesus monkey, plasma, sc, 1 mg/kg, SC post IR, 1 mg/kg, read-out: exposure (AUCINF)
  AUC(0-inf): 57300 ± 24200 ng·h/mL
[3]; male, rhesus monkey, plasma, sc, 1 mg/kg, SC post IR, 1 mg/kg, read-out: half-life (converted)
  half-life: 526 ± 37.3 min
[3]; male, rhesus monkey, plasma, sc, 1 mg/kg, SC, healthy, read-out: T½, range of individual subjects
  half-life: 580 to 642 min
[3]; male, rhesus monkey, plasma, sc, 1 mg/kg, SC, healthy, single dose 1 mg/kg, read-out: exposure (AUCINF)
  AUC(0-inf): 63700 ± 21400 ng·h/mL
[3]; male, rhesus monkey, plasma, sc, 1 mg/kg, SC, healthy, single dose 1 mg/kg, read-out: half-life (converted)
  half-life: 630 ± 36 min
[3]; male, rhesus monkey, plasma, sc, 1 mg/kg, SC, irradiated animals, read-out: half-life, range of individual subjects
  half-life: 473 to 580 min
[3]; male, rhesus monkey, plasma, sc, 1 mg/kg, healthy, single dose 1 mg/kg
  Cmax: 3130 ± 637 ng/mL
[3]; male, rhesus monkey, plasma, sc, 1 mg/kg, healthy, single dose 1 mg/kg, mean ± SD
  Tmax: 4 ± 2 h
